Laboratory results reported in PMC12472494, “Anticonvulsant Potential of 1-Aryl-6,7-dimethoxy-1,2,3,4-tetrahydroisoquinolines: Insights from Strychnine and Nicotine Models in In Vivo and In Silico Studies” (Pharmaceuticals, 2025).
“And” between values parts separate entries of the source, which are not always exact repeats. Equal values may be shown once. “Also recorded” adds a separate entry of the source.

Experiments:
[1] = system: strychnine-induced seizures; test: Strychnine-induced seizure model; type: in vivo, mice; conditions: for responders at 1 mg/kg: Mus musculus, read-out: Survival Rate; for responders at 1 mg/kg / Duration of Tremor and Seizures / Latency to Tremor and Seizure Onset: oral dose 1.0 mg/kg 60 min before strychnine 1.5 mg/kg s.c., N = 10; for Duration of Tremor and Seizures / Latency to Tremor and Seizure Onset: mean ± SD; for survival rate of strychnine-poisoned animals: dose not given; for activity against strychnine-induced seizures (in words): ranking within the series
From the text: (§1) The anticonvulsant effects of the examined substances were studied in male white mice weighing 18–22 g, divided into the following groups: control (including the strychnine and nicotine groups), carbamazepine group, Convulex group, and experimental groups (one for each tested substance). Simple randomization (“heads or tails” coin toss) was used to assign animals to groups. Each group contained 10 animals. Healthy animals were included in the experiments after a 14-day quarantine period. No animals were excluded from the study. Convulsant agents were administered subcutaneously at doses of 10.0 mg/kg for nicotine (Sigma–Aldrich, Saint Louis, MO, USA) and 1.5 mg/kg for strychnine (Sigma–Aldrich, Saint Louis, MO, USA), 60 min after the oral administration of the test substances at doses ranging from 0.1 to 10 mg/kg. The onset time, duration of tremors and seizures, and survival rate of the animals were recorded. Carbamazepine (Darnitsa, Kiev, Ukraine) at doses of 5.0–10.0 mg/kg and Convulex (valproate) (Gerot Pharmazeutika GmbH, Vienna, Austria) at doses of 75.0–100.0 mg/kg (based on the therapeutic anticonvulsant dose) were used as reference drugs.
(§2) Data were presented as mean ± SD for different groups. Statistical analysis was performed using OriginPro 9.0 (MicroCal Software, Northampton, MA, USA), with p < 0.05 considered statistically significant.

[2] = design: method as in PMID 36677539; conditions: per os; cited from earlier work
[3] = system: tremorogenic and convulsive actions of nicotine; test: Nicotine-induced tremor and seizure model; type: in vivo, mice; conditions: for responders at 1 mg/kg: Mus musculus, po, read-out: Survival Rate; for survival rate of the animals increased to: at low doses (0.1–5 mg/kg); for activity against tremorogenic and convulsive actions of nicotine versus reference drugs (in words): doses of 0.1–5 mg/kg; for Duration of Seizures / Latency to Seizure Onset: oral dose 1.0 mg/kg 60 min before nicotine 10 mg/kg s.c., mean ± SD, N = 10
From the text: as §1, §2

[4] = doses of 0.5–1 mg/kg, versus control

SMILES | responders at 1 mg/kg [1] | Duration of Tremor and Seizures [1] | Latency to Tremor and Seizure Onset [1] | LD50 [2] | responders at 1 mg/kg [3] | survival rate of the animals increased to [3] | activity against tremorogenic and convulsive actions of nicotine versus reference drugs (in words) [3] | Duration of Seizures [3] | Latency to Seizure Onset [3] | survival rate of strychnine-poisoned animals [1] | effect on the duration of the seizures ([1]; doses of 1–10 mg/kg) | increase of animal survival ([1]; doses of 1–10 mg/kg) | extension of the latency period for seizures ([1]; doses of 1–10 mg/kg, versus control) | activity against strychnine-induced seizures (in words) [1] | survival of poisoned animals compared to carbamazepine and valproate (in words) ([3]; mouse, in vivo) | increase of animal survival ([1]; doses of 0.5–1 mg/kg) | extension of the latency period for seizures [1, 4] | reduction of seizure duration [1, 4]
COc1cc2c(cc1OC)C(c1cccc(Br)c1)NCC2 (stereo not shown) [Compound 14, 1-(3′-Bromophenyl)-6,7-dimethoxy-1,2,3,4-tetrahydroisoquinoline] | 60% | 0.35 ± 0.8 min | 18.5 ± 1.5 min | 446.7 (416.2 ± 471.3) mg/kg | 90% | 90–100% | comparable activity to the reference drugs | 2.5 ± 0.4 min | 2.8 ± 0.02 min | – | – | – | – | – | – | – | – | –
COc1cc2c(cc1OC)C(c1ccc(Br)cc1)NCC2 (stereo not shown) [Compound 15, 1-(4′-Bromophenyl)-6,7-dimethoxy-1,2,3,4-tetrahydroisoquinoline] | 40% | 0.50 ± 0.5 min | 12.5 ± 1.2 min | 422.0 (399.4 ± 445.3) mg/kg | 70% | – | – | 8.3 ± 0.3 min | 2.2 ± 0.07 min | no more than 40% | – | – | – | – | – | – | – | –
COc1cc2c(cc1OC)C(c1ccc(N(C)C)cc1)NCC2 (stereo not shown) [Compound 16, 1-(4′-Dimethylaminophenyl)-6,7-dimethoxy-1,2,3,4-tetrahydroisoquinoline] | 50% | 0.31 ± 0.6 min | 13.1 ± 1.5 min | 498.3 (471.6 ± 524.6) mg/kg | 90% | 90–100% | comparable activity to the reference drugs | 8.5 ± 0.7 min | 2.7 ± 0.08 min | – | – | – | – | – | – | – | – | –
COc1cc2c(cc1OC)C(c1cc(Br)ccc1O)NCC2 (stereo not shown) [Compound 17, 1-(2′-Hydroxy-5′-bromophenyl)-6,7-dimethoxy-1,2,3,4-tetrahydroisoquinoline] | 40% | 0.61 ± 0.5 min | 15.7 ± 1.6 min | 297.3 (270.2 ± 323.7) mg/kg | 70% | – | – | 8.1 ± 0.8 min | 2.1 ± 0.07 min | – | – | – | – | – | – | – | – | –
COc1cc2c(cc1OC)C(c1ccc(O)c(Br)c1)NCC2 (stereo not shown) [Compound 18, 1-(3′-Bromo-4′-hydroxyphenyl)-6,7-dimethoxy-1,2,3,4-tetrahydroisoquinoline] | 50% | 0.56 ± 0.6 min | 14.6 ± 1.5 min | 3850 mg/kg and 3793.8 (3395.8 ± 4088.1) mg/kg | 70% | – | – | 8.9 ± 0.9 min | 1.7 ± 0.04 min | – | – | – | – | – | – | – | – | –
COc1ccc(C2NCCc3cc(OC)c(OC)cc32)cc1Br (stereo not shown) [Compound 19, 1-(3′-Bromo-4′-methoxyphenyl)-6,7-dimethoxy-1,2,3,4-tetrahydroisoquinoline] | 40% | 0.59 ± 0.9 min | 16.0 ± 1.4 min | 327.9 (287.1 ± 363.8) mg/kg | 80% | – | – | 19.0 ± 0.8 min | 1.8 ± 0.07 min | – | – | – | – | – | – | – | – | –
COc1ccc(C2NCCc3cc(OC)c(OC)cc32)cc1O (stereo not shown) [Compound 20, 1-(3′-Hydroxy-4′-methoxyphenyl)-6,7-dimethoxy-1,2,3,4-tetrahydroisoquinoline] | 90% | 0.63 ± 0.7 min | 18.2 ± 1.4 min | 964.8 (916.5 ± 998.2) mg/kg | 70% | – | – | 11.0 ± 0.7 min | 2.8 ± 0.07 min | ~90% | minimal effect | 90% | 27–86% | most active; also recorded: highest activity | – | – | – | –
COc1cc(C2NCCc3cc(OC)c(OC)cc32)ccc1O (stereo not shown) [Compound 21, 1-(4′-Hydroxy-3′-methoxyphenyl)-6,7-dimethoxy-1,2,3,4-tetrahydroisoquinoline] | 40% | 0.52 ± 0.4 min | 15.4 ± 1.5 min | 1663.6 (1623.1 ± 1629.1) mg/kg | 60% | – | – | 14.3 ± 0.6 min | 1.8 ± 0.04 min | – | – | – | – | – | – | – | – | –
COc1ccc(C2NCCc3cc(OC)c(OC)cc32)cc1OC (stereo not shown) [Compound 22, 1-(3′,4′-Dimethoxyphenyl)-6,7-dimethoxy-1,2,3,4-tetrahydroisoquinoline] | 30% | 0.71 ± 0.6 min | 12.7 ± 1.3 min | 666.6 (557.9 ± 760.2) mg/kg | 80% | – | – | – | 2.2 ± 0.04 min | no more than 40% | – | – | – | – | – | – | – | –
COc1cc2c(cc1OC)C(c1cccc(OC)c1[N+](=O)[O-])NCC2 (stereo not shown) [Compound 23, 1-(3′-Methoxy-2′-nitrophenyl)-6,7-dimethoxy-1,2,3,4-tetrahydroisoquinoline] | 30% | 0.60 ± 0.4 min | 14.6 ± 1.4 min | 315.4 (281.0 ± 344.2) mg/kg | 20% | – | – | 5.4 ± 0.9 min | 1.5 ± 0.08 min | – | – | – | – | – | – | – | – | –
COc1cc(Br)c(C2NCCc3cc(OC)c(OC)cc32)cc1O (stereo not shown) [Compound 24, 1-(2′-Bromo-4′-methoxy-5′-hydroxyphenyl)-6,7-dimethoxy-1,2,3,4-tetrahydroisoquinoline] | 30% | 0.32 ± 0.4 min | 10.2 ± 1.2 min | 546.9 (516.3 ± 571.6) mg/kg | 70% | – | – | 7.3 ± 0.3 min | 2.1 ± 0.09 min | – | – | – | – | – | did not improve the survival | – | – | –
COc1cc(Br)c(C2NCCc3cc(OC)c(OC)cc32)cc1OC (stereo not shown) [Compound 25, 1-(2′-Bromo-4′,5′-dimethoxyphenyl)-6,7-dimethoxy-1,2,3,4-tetrahydroisoquinoline] | 90% | 0.14 ± 0.6 min | 16.5 ± 1.5 min | 272.1 (249.1 ± 295.6) mg/kg | 90% | 90–100% | comparable activity to the reference drugs | 9.0 ± 0.9 min | 2.2 ± 0.04 min | 90% | – | – | – | most active; also recorded: highest activity | – | 90% | 30–100% | 3.7–4 times
COc1cc2c(cc1OC)C(c1cc(OC)c(OC)cc1[N+](=O)[O-])NCC2 (stereo not shown) [Compound 26, 1-(4′,5′-Dimethoxy-2′-nitrophenyl)-6,7-dimethoxy-1,2,3,4-tetrahydroisoquinoline] | 40% | 0.51 ± 0.8 min | 16.7 ± 1.2 min | 524.5 (501.3 ± 547.7) mg/kg | 80% | – | – | 10.8 ± 0.4 min | 2.6 ± 0.03 min | – | – | – | – | – | – | – | – | –
